Reference: publication PMC10794144, “A novel antibiotic class targeting the lipopolysaccharide transporter” (Nature, 2024)
Converted amounts (≈) assume the structure as drawn. Where two headings read alike, the source gives them in different places.

System: A. baumannii
Experiment: MIC, broth microdilution in CAMHB supplemented with human serum, read at 100% growth inhibition
Format: cell-based, Acinetobacter baumannii
Details: Acinetobacter baumannii, read-out: MIC
Protocol: MIC determinations were performed using the broth microdilution method and in line with CLSI guidelines M07 and M100 (refs. [37],[38]). Bacterial inocula were prepared by diluting a 0.5 McFarland suspension in CAMHB or lysogeny broth (LB) specifically for A. baylyi isolates. […] MIC values of all of the tested antibiotics were read as the lowest compound concentration inhibiting bacterial growth by naked eye or beyond which the OD600 ceased to decrease.

`CN1C(=O)[C@H](CCCCN)NC(=O)[C@H](CCCN)NCc2cccnc2Sc2cccc(-c3ccc(C(=O)O)cc3)c2CNC(=O)[C@@H]1Cc1c[nH]c2ccccc12` [zosurabalpin] gave an MIC (isolate 1729353, 20% HS) of 0.25 µg/mL (≈ 0.316 µM), an MIC (isolate 1729358, 20% HS) of 0.25 µg/mL (≈ 0.316 µM) and an MIC (isolate 1729362, 20% HS) of 1 µg/mL (≈ 1.26 µM). The MIC (isolate 1729379, 20% HS) was 1 µg/mL (≈ 1.26 µM), the MIC (isolate 1864609, 20% HS) was 0.06 µg/mL (≈ 0.0759 µM) and the MIC (isolate 1864833, 20% HS) was 0.5 µg/mL (≈ 0.632 µM). The MIC (isolate 1865057, 20% HS) was 0.25 µg/mL (≈ 0.316 µM), the MIC (isolate 1865083, 20% HS) was 0.5 µg/mL (≈ 0.632 µM) and the MIC (isolate 1865084, 20% HS) was 0.5 µg/mL (≈ 0.632 µM). It also gave an MIC (isolate 1865085, 20% HS) of 0.5 µg/mL (≈ 0.632 µM), an MIC (isolate 1865086, 20% HS) of 0.5 µg/mL (≈ 0.632 µM) and an MIC (isolate 1865266, 20% HS) of 1 µg/mL (≈ 1.26 µM). The MIC (isolate 1865269, 20% HS) was 0.25 µg/mL (≈ 0.316 µM), the MIC (isolate 1865273, 20% HS) was 0.06 µg/mL (≈ 0.0759 µM) and the MIC (isolate 1865274, 20% HS) was 0.25 µg/mL (≈ 0.316 µM). It also gave an MIC (isolate 1865386, 20% HS) of 0.125 µg/mL (≈ 0.158 µM), an MIC (isolate 1865387, 20% HS) of 0.125 µg/mL (≈ 0.158 µM) and an MIC (isolate 1865494, 20% HS) of 0.06 µg/mL (≈ 0.0759 µM). The MIC (isolate 1865714, 20% HS) was 0.25 µg/mL (≈ 0.316 µM), the MIC (isolate 1866281, 20% HS) was 0.125 µg/mL (≈ 0.158 µM) and the MIC (isolate 1866282, 20% HS) was 0.06 µg/mL (≈ 0.0759 µM). For the same compound, the MIC (isolate 1866283, 20% HS) was 0.03 µg/mL (≈ 0.0379 µM), the MIC (isolate 1866370, 20% HS) was 0.25 µg/mL (≈ 0.316 µM) and the MIC (isolate 1866376, 20% HS) was 0.25 µg/mL (≈ 0.316 µM). It also gave an MIC (isolate 1868315, 20% HS) of 0.5 µg/mL (≈ 0.632 µM), an MIC (isolate 1869068, 20% HS) of 1 µg/mL (≈ 1.26 µM) and an MIC (isolate 1869084, 20% HS) of 4 µg/mL (≈ 5.06 µM). The MIC (isolate 1869085, 20% HS) was 1 µg/mL (≈ 1.26 µM), the MIC (isolate 1869086, 20% HS) was 1 µg/mL (≈ 1.26 µM) and the MIC (isolate 1869087, 20% HS) was 1 µg/mL (≈ 1.26 µM). The MIC (isolate 1869088, 20% HS) was 0.5 µg/mL (≈ 0.632 µM), the MIC (isolate 1869089, 20% HS) was 0.25 µg/mL (≈ 0.316 µM) and the MIC (isolate 1869090, 20% HS) was 0.25 µg/mL (≈ 0.316 µM). For the same compound, the MIC (isolate 1869091, 20% HS) was 0.25 µg/mL (≈ 0.316 µM), the MIC (isolate 1869093, 20% HS) was 0.25 µg/mL (≈ 0.316 µM) and the MIC (isolate 1869173, 20% HS) was 0.25 µg/mL (≈ 0.316 µM). For the same compound, the MIC (isolate 1870044, 20% HS) was 0.03 µg/mL (≈ 0.0379 µM), the MIC (isolate 1870131, 20% HS) was 1 µg/mL (≈ 1.26 µM) and the MIC (isolate 1870152, 20% HS) was 0.25 µg/mL (≈ 0.316 µM). The MIC (isolate 1870171, 20% HS) was 0.5 µg/mL (≈ 0.632 µM), the MIC (isolate 1871948, 20% HS) was 1 µg/mL (≈ 1.26 µM) and the MIC (isolate 1872001, 20% HS) was 0.25 µg/mL (≈ 0.316 µM). It also gave an MIC (isolate 1872360, 20% HS) of 4 µg/mL (≈ 5.06 µM), an MIC (isolate 1887389, 20% HS) of 0.06 µg/mL (≈ 0.0759 µM) and an MIC (isolate 1887397, 20% HS) of 0.06 µg/mL (≈ 0.0759 µM). For the same compound, the MIC (isolate 1887497, 20% HS) was 0.06 µg/mL (≈ 0.0759 µM), the MIC (isolate 1887498, 20% HS) was 0.06 µg/mL (≈ 0.0759 µM) and the MIC (isolate 1897312, 20% HS) was 0.03 µg/mL (≈ 0.0379 µM). For the same compound, the MIC (isolate 1897314, 20% HS) was 0.25 µg/mL (≈ 0.316 µM), the MIC (isolate 1897317, 20% HS) was 0.25 µg/mL (≈ 0.316 µM) and the MIC (isolate 1914727, 20% HS) was 0.5 µg/mL (≈ 0.632 µM). For the same compound, the MIC (isolate 1914733, 20% HS) was 0.06 µg/mL (≈ 0.0759 µM), the MIC (isolate 1930837, 20% HS) was 0.06 µg/mL (≈ 0.0759 µM) and the MIC (isolate 1930840, 20% HS) was 0.125 µg/mL (≈ 0.158 µM). The MIC (mutations in adeRS) was 1 to 8 µg/mL (≈ 1.26 to 10.1 µM).
